Article PMC10601815, “αβ,α′β′-Diepoxyketones are mechanism-based inhibitors of nucleophilic cysteine enzymes” (Chemical Communications (Cambridge, England), 2023)
Where “and” joins values, the source holds several entries; their conditions need not be identical. Identical values can stand only once. Like-named read-outs stand apart in the source and are kept apart here.

Tests used:
LdtMt2 [1] = molecular target: T1, LdtMt2 (Mycobacterium tuberculosis, UniProt I6Y9J2); test: biochemical
[2] = for kchem (kinetic rate constant for reactivity with GSH): 500 nM L-glutathione, 10 µM Probe 1, pH 7.2; for half-life (t1/2) of reaction with GSH: buffer
LdtMt2 [3] = molecular target: T1, LdtMt2; type: binding
LdtMt2 [4] = molecular target: T1, LdtMt2; test: biochemical; conditions: for IC50: read-out: pIC50 LdtMt2 (converted)
[5] = 1 µM LdtMt2, inhibitor 20 µM (100 µM for 12), rt, 15 min
[6] = 1 µM LdtMt2, inhibitor 20 µM (100 µM for 12), rt, 24 h

T1 sequence (I6Y9J2 56-408): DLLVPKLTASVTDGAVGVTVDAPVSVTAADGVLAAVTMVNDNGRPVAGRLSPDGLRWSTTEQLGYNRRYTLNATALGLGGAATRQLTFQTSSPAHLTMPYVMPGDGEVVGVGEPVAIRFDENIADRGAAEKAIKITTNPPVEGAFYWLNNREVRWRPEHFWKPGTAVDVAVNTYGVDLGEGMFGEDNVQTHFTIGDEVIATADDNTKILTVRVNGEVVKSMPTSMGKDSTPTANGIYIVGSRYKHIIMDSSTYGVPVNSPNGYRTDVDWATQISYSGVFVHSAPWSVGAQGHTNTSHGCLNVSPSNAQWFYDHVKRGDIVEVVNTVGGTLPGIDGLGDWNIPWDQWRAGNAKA

Compound: COc1ccccc1C1OC1C(=O)C1OC1c1ccccc1OC (mixture of isomers) [DEK 5]
- kinact/KI LdtMt2 (LdtMt2 [1]): 61.1 ± 2.78 M⁻¹ s⁻¹
- kchem (kinetic rate constant for reactivity with GSH) [2]: < 0.8 M⁻¹ s⁻¹
- Area (%) 15 min, adduct with assignment N.D. (+309 Da for 5, +80 Da for 8 and 9) (LdtMt2 [3]): 0.0%
- Area (%) 15 min, assignment Dha (-34 Da) (LdtMt2 [3]): 0.0%
- Area (%) 15 min, assignment Retro-aldol fragment (3) (LdtMt2 [3]): 9.0%
- Area (%) 15 min, assignment Unassigned fragment / Fragment II (+56/+57 Da) (LdtMt2 [3]): 0.0%
- Area (%) 15 min, assignment Unfragmented (2) (LdtMt2 [3]): 77.9%
- Area (%) 15 min, assignment Unmodified LdtMt2 (LdtMt2 [3]): 2.5%
- Area (%) 24 h, adduct with assignment N.D. (+309 Da for 5, +80 Da for 8 and 9) (LdtMt2 [3]): 4.22%
- Area (%) 24 h, assignment Dha (-34 Da) (LdtMt2 [3]): ~30% and 30.4%
- Area (%) 24 h, assignment Retro-aldol fragment (3) (LdtMt2 [3]): 39.6%
- Area (%) 24 h, assignment Unfragmented (2) (LdtMt2 [3]): 0.0%
- Area (%) 24 h, assignment Unmodified LdtMt2 (LdtMt2 [3]): 0.0%

Compound: Cc1cccc(C)c1C1OC1C(=O)C1OC1c1c(C)cccc1C (mixture of isomers) [DEK 8]
- inhibition of LdtMt2 in the kinact/KI determination (in words) (LdtMt2 [1]): no evidence for inhibition
- kinact/KI LdtMt2 (LdtMt2 [1]): < 10.0 M⁻¹ s⁻¹
- kchem (kinetic rate constant for reactivity with GSH) [2]: 1.11 ± 0.20 M⁻¹ s⁻¹ and 1.1 ± 0.2 M⁻¹ s⁻¹
- half-life (t1/2) of reaction with GSH [2]: 38 min
- Area (%) 15 min, adduct with assignment N.D. (+309 Da for 5, +80 Da for 8 and 9) (LdtMt2 [3]): 0.0%
- Area (%) 15 min, assignment Retro-aldol fragment (3) (LdtMt2 [3]): 0.0%
- Area (%) 15 min, assignment Unmodified LdtMt2 (LdtMt2 [3]): 100.0%
- Area (%) 24 h, adduct with assignment N.D. (+309 Da for 5, +80 Da for 8 and 9) (LdtMt2 [3]): 14.9%
- Area (%) 24 h, assignment Retro-aldol fragment (3) (LdtMt2 [3]): 16.3%
- Area (%) 24 h, assignment Unmodified LdtMt2 (LdtMt2 [3]): 68.8%

Compound: O=C(C1OC1c1ccccc1)C1OC1c1ccccc1 (mixture of isomers) [diastereomeric mixture of 1]
- pIC50 LdtMt2 (LdtMt2 [4]): 5.59 ± 0.036 and 5.6 ± 0.04

Compound: O=C(c1ccccc1)C1OC1c1ccccc1 (racemic) [Epoxide 12, reference compound]
- inhibition of LdtMt2 in dose-response assays (in words) (LdtMt2 [4]): did not manifest inhibition
- pIC50 LdtMt2 (LdtMt2 [4]): < 4.4
- Area (%) 15 min, assignment Retro-aldol fragment (3) (LdtMt2 [3]): 0.0%
- Area (%) 15 min, assignment Unfragmented (2) (LdtMt2 [3]): 8.6%
- Area (%) 15 min, assignment Unmodified LdtMt2 (LdtMt2 [3]): 91.4%
- Area (%) 24 h, assignment Retro-aldol fragment (3) (LdtMt2 [3]): 87.2%
- Area (%) 24 h, assignment Unfragmented (2) (LdtMt2 [3]): 0.0%
- Area (%) 24 h, assignment Unmodified LdtMt2 (LdtMt2 [3]): 12.8%
- covalent reaction with LdtMt2 (in words) (LdtMt2 [3]): evidenced covalent reaction

Compound: Cc1cc(C)cc([C@@H]2O[C@H]2C(=O)[C@@H]2O[C@H]2c2cc(C)cc(C)c2)c1 (relative stereo) [DEK 7]
- kinact/KI LdtMt2 (LdtMt2 [1]): 80.9 ± 6.74 M⁻¹ s⁻¹
- kchem (kinetic rate constant for reactivity with GSH) [2]: 1.71 ± 0.24 M⁻¹ s⁻¹ and 1.7 ± 0.2 M⁻¹ s⁻¹
- half-life (t1/2) of reaction with GSH [2]: 24 min
- Area (%) 15 min, assignment Dha (-34 Da) (LdtMt2 [3]): 0.0%
- Area (%) 15 min, assignment Retro-aldol fragment (3) (LdtMt2 [3]): 43.7%
- Area (%) 15 min, assignment Unassigned fragment / Fragment II (+56/+57 Da) (LdtMt2 [3]): 0.0%
- Area (%) 15 min, assignment Unfragmented (2) (LdtMt2 [3]): 44.8%
- Area (%) 15 min, assignment Unmodified LdtMt2 (LdtMt2 [3]): 11.5%
- Area (%) 24 h, assignment Dha (-34 Da) (LdtMt2 [3]): ~16% and 16.2%
- Area (%) 24 h, assignment Retro-aldol fragment (3) (LdtMt2 [3]): 70.3%
- Area (%) 24 h, assignment Unfragmented (2) (LdtMt2 [3]): 0.0%
- Area (%) 24 h, assignment Unmodified LdtMt2 (LdtMt2 [3]): 0.0%

Compound: O=C([C@H]1O[C@@H]1c1ccccc1)[C@@H]1O[C@H]1c1ccccc1 [DEK 1]
- kinact/KI (LdtMt2 [1]; 100 nM LdtMt2, 10 µM Probe 1, 3.5 h): 484 ± 28.4 M⁻¹ s⁻¹
- kchem (kinetic rate constant for reactivity with GSH) [2]: < 0.8 M⁻¹ s⁻¹
- IC50 (LdtMt2 [4]; 15 min preincubation, 100 nM LdtMt2, 25 µM Probe 1, n=4): 617 nM and 631 nM
- IC50 (LdtMt2 [4]; 30 min pre-incubation): 63.1 nM
- IC50 (LdtMt2 [4]; Table S3, 10 min pre-incubation, 100 nM LdtMt2, 25 µM Probe 1): 1000 nM
- Area (%) 15 min, assignment Dha (-34 Da) (LdtMt2 [3]; [5]): 0.0%
- Area (%) 15 min, assignment Retro-aldol fragment (3) (LdtMt2 [3]; [5]): 23.3%
- Area (%) 15 min, assignment Unfragmented (2) (LdtMt2 [3]; [5]): 74.7%
- Area (%) 15 min, assignment Unmodified LdtMt2 (LdtMt2 [3]; [5]): 2.0%
- Area (%) 24 h, assignment Dha (-34 Da) (LdtMt2 [3]; [6]): ~5% and 5.0%
- Area (%) 24 h, assignment Retro-aldol fragment (3) (LdtMt2 [3]; [6]): 82.0%
- Area (%) 24 h, assignment Unfragmented (2) (LdtMt2 [3]; [6]): 7.2%
- Area (%) 24 h, assignment Unmodified LdtMt2 (LdtMt2 [3]; [6]): 0.0%
- Area (%) 15 min, assignment Unassigned fragment / Fragment II (+56/+57 Da) (LdtMt2 [3]; 1 µM LdtMt2, inhibitor 20 µM, rt, 15 min): 0.0%
- covalent reaction with LdtMt2 (in words) (LdtMt2 [3]; 1 µM LdtMt2, inhibitor 20 µM (100 µM for 12)): covalently reacts with LdtMt2
- time for conversion of the initial adduct (2, +267 Da) into the +160 Da adduct (3) (LdtMt2 [3]; 1 (20 µM), LdtMt2 (1 µM)): ≤ 2 h

Compound: O=C(C1OC1c1ccc(OC(F)(F)F)cc1)C1OC1c1ccc(OC(F)(F)F)cc1 (stereo not shown) [DEK 4]
- inhibition of LdtMt2 in the kinact/KI determination (in words) (LdtMt2 [1]): no evidence for inhibition
- kinact/KI LdtMt2 (LdtMt2 [1]): < 10.0 M⁻¹ s⁻¹
- kchem (kinetic rate constant for reactivity with GSH) [2]: < 0.8 M⁻¹ s⁻¹
- Area (%) 15 min, assignment Dha (-34 Da) (LdtMt2 [3]): 0.0%
- Area (%) 15 min, assignment Retro-aldol fragment (3) (LdtMt2 [3]): 18.1%
- Area (%) 15 min, assignment Unfragmented (2) (LdtMt2 [3]): 5.41%
- Area (%) 15 min, assignment Unmodified LdtMt2 (LdtMt2 [3]): 76.5%
- Area (%) 24 h, assignment Dha (-34 Da) (LdtMt2 [3]): ~2.5% and 2.4%
- Area (%) 24 h, assignment Retro-aldol fragment (3) (LdtMt2 [3]): 97.6%
- Area (%) 24 h, assignment Unfragmented (2) (LdtMt2 [3]): 0.0%
- Area (%) 24 h, assignment Unmodified LdtMt2 (LdtMt2 [3]): 0.0%

Compound: O=C(C1OC1c1ccccc1OC(F)(F)F)C1OC1c1ccccc1OC(F)(F)F (stereo not shown) [DEK 6]
- kinact/KI LdtMt2 (LdtMt2 [1]): 140.6 ± 17.1 M⁻¹ s⁻¹
- kchem (kinetic rate constant for reactivity with GSH) [2]: < 0.8 M⁻¹ s⁻¹
- Area (%) 15 min, assignment Retro-aldol fragment (3) (LdtMt2 [3]): 11.6%
- Area (%) 15 min, assignment Unassigned fragment / Fragment II (+56/+57 Da) (LdtMt2 [3]): 0.0%
- Area (%) 15 min, assignment Unfragmented (2) (LdtMt2 [3]): 81.2%
- Area (%) 15 min, assignment Unmodified LdtMt2 (LdtMt2 [3]): 7.2%
- Area (%) 24 h, assignment Dha (-34 Da) (LdtMt2 [3]): no evidence for Dha formation
- Area (%) 24 h, assignment Retro-aldol fragment (3) (LdtMt2 [3]): 93.2%
- Area (%) 24 h, assignment Unfragmented (2) (LdtMt2 [3]): 0.0%
- Area (%) 24 h, assignment Unmodified LdtMt2 (LdtMt2 [3]): 2.6%

Compound: O=C1C2(CCC13OC3c1ccccc1)OC2c1ccccc1 (stereo not shown) [DEK 9]
- kinact/KI LdtMt2 (LdtMt2 [1]): 25.8 ± 1.41 M⁻¹ s⁻¹
- kchem (kinetic rate constant for reactivity with GSH) [2]: < 0.8 M⁻¹ s⁻¹
- Area (%) 15 min, adduct with assignment N.D. (+309 Da for 5, +80 Da for 8 and 9) (LdtMt2 [3]): 6.9%
- Area (%) 15 min, assignment Retro-aldol fragment (3) (LdtMt2 [3]): 68.8%
- Area (%) 15 min, assignment Unfragmented (2) (LdtMt2 [3]): 21.0%
- Area (%) 15 min, assignment Unmodified LdtMt2 (LdtMt2 [3]): 3.3%
- Area (%) 24 h, adduct with assignment N.D. (+309 Da for 5, +80 Da for 8 and 9) (LdtMt2 [3]): 9.1%
- Area (%) 24 h, assignment Retro-aldol fragment (3) (LdtMt2 [3]): 90.9%
- Area (%) 24 h, assignment Unfragmented (2) (LdtMt2 [3]): 0.0%
- Area (%) 24 h, assignment Unmodified LdtMt2 (LdtMt2 [3]): 0.0%

Compound: O=C1C2(CCCC13OC3c1ccccc1)OC2c1ccccc1 (stereo not shown) [DEK 10]
- inhibition of LdtMt2 in the kinact/KI determination (in words) (LdtMt2 [1]): no evidence for inhibition
- kinact/KI LdtMt2 (LdtMt2 [1]): < 10.0 M⁻¹ s⁻¹
- kchem (kinetic rate constant for reactivity with GSH) [2]: < 0.8 M⁻¹ s⁻¹
- pIC50 LdtMt2 (LdtMt2 [4]): < 4.4
- Area (%) 15 min, assignment Unfragmented (2) (LdtMt2 [3]): 0.0%
- Area (%) 15 min, assignment Unmodified LdtMt2 (LdtMt2 [3]): 100.0%
- Area (%) 24 h, assignment Unfragmented (2) (LdtMt2 [3]): 9.8%
- Area (%) 24 h, assignment Unmodified LdtMt2 (LdtMt2 [3]): 90.2%

Compound: O=C1C2(CCCCC13OC3c1ccccc1)OC2c1ccccc1 (stereo not shown) [DEK 11]
- pIC50 LdtMt2 (LdtMt2 [4]): < 4.4
- Area (%) 15 min, assignment Unmodified LdtMt2 (LdtMt2 [3]): 100.0%
- Area (%) 24 h, assignment Unmodified LdtMt2 (LdtMt2 [3]): 100.0%
